Laboratory results published in PMC10878397, “Development of Potent Dual BET/HDAC Inhibitors via Pharmacophore Merging and Structure-Guided Optimization” (ACS Chemical Biology, 2024).
Where “and” joins values, the source holds several entries; their conditions need not be identical. Equal entries are not always repeated. Where two headings read alike, the source gives them in different places.

Tests used:
HDAC1 = HDAC1 (Homo sapiens, UniProt Q13547); test: NanoBRET target engagement assay (HEK293T); assay type: cell-based; parameters: BRD4 bromodomains and full-length HDACs were obtained as plasmids cloned in-frame with a terminal NanoLuc fusion; host or cells: HEK293T
Sequence of HDAC1 (Q13547 whole entry, the tested form may be a part): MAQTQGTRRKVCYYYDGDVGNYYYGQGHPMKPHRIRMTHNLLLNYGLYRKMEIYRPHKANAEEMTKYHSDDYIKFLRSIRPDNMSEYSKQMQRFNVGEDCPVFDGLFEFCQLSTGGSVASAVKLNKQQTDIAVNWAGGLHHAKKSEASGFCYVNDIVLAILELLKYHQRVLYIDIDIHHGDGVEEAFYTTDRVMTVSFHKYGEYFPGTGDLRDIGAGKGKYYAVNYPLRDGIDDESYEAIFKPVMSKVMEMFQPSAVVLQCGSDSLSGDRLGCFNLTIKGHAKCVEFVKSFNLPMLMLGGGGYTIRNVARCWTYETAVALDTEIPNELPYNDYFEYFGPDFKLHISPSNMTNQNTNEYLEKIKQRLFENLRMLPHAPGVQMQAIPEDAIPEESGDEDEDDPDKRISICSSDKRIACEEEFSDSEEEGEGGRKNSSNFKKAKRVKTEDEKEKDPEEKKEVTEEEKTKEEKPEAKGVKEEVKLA
Description: (§1) The assay was performed as described previously.[17],[59] In brief, BRD4 bromodomains and full-length HDACs were obtained as plasmids cloned in-frame with a terminal NanoLuc fusion (Promega). Plasmids were transfected into HEK293T cells using FuGENE HD (Promega, E2312), and proteins were allowed to express for 20 h. […] The corresponding protein-transfected cells were added and reseeded at a density of 2 × 10^5 cells/mL after trypsinization and resuspended in Opti-MEM without phenol red (Life Technologies). The system was allowed to equilibrate for 2 h at 37 °C/5% CO2 prior to BRET measurements. […] For lysed-mode NanoBRET experiments, digitonin (Promega, #G9441) was added as per the manufacturer’s instructions to a final concentration of […].

HDAC3 = HDAC3 (Homo sapiens, UniProt O15379); test: NanoBRET target engagement assay (HEK293T); assay type: cell-based; parameters: BRD4 bromodomains and full-length HDACs were obtained as plasmids cloned in-frame with a terminal NanoLuc fusion; host or cells: HEK293T; conditions: intact cells
Sequence of HDAC3 (O15379 whole entry, the tested form may be a part): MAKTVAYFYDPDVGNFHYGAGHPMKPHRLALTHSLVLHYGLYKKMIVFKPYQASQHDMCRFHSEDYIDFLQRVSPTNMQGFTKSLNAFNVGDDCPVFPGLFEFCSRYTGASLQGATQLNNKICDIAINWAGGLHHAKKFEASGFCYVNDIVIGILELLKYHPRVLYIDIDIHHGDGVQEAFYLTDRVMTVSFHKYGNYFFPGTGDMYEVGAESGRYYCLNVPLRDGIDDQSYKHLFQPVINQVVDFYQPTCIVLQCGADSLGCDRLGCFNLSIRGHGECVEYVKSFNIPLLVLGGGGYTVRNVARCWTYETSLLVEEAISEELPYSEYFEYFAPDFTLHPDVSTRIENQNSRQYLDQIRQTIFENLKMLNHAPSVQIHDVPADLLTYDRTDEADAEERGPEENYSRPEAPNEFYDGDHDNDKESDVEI
Description: as §1

HDAC2 = HDAC2 (Homo sapiens, UniProt Q92769); test: NanoBRET target engagement assay (HEK293T); assay type: cell-based; parameters: BRD4 bromodomains and full-length HDACs were obtained as plasmids cloned in-frame with a terminal NanoLuc fusion; host or cells: HEK293T
Sequence of HDAC2 (Q92769 whole entry, the tested form may be a part): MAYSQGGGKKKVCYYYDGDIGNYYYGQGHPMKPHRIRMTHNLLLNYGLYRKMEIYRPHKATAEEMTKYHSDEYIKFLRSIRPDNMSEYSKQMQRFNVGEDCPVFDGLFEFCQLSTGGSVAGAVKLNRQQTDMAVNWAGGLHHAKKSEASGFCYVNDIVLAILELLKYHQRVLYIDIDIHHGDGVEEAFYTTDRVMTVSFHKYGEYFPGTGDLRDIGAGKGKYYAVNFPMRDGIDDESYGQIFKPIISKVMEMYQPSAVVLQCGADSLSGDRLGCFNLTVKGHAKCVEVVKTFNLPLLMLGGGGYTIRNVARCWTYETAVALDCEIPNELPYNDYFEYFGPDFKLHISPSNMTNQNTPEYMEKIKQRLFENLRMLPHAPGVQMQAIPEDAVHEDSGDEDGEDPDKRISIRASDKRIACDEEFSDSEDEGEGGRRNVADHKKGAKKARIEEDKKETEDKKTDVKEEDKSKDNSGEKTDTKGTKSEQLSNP
Description: as §1

BRD4 BD1 [1] = molecular target: T1, BRD4 BD1 (Homo sapiens, UniProt O60885); test: DSF thermal shift assay; assay type: binding; parameters: purchased in-house (SGC Frankfurt recombinant bromodomain DSF panel); conditions: for Mean Tm BRD4 (1), bromodomain panel: selectivity panel, technical triplicates
Description: (§2) The effects of inhibitor binding on the apparent melting temperature of recombinant bromodomains were determined by DSF in a 96-well plate (Starlab) at a protein concentration of 2 μM with 10 μΜ compound in buffer containing 25 mM HEPES, pH 7.5, 150 mM NaCl, and 0.5 mM TCEP. […] Protein unfolding profiles were recorded using an MX3005P real-time qPCR instrument (Agilent; excitation/emission filters = 492/610 nm) while increasing the temperature from 25 to 95 °C at a heating rate of 3 °C/min. Tm values were calculated after fitting the fluorescence curves to the Boltzmann equation. Differences in melting temperature upon compound binding are given as ΔTm = Tm (protein with inhibitor) – Tm (protein with DMSO control). Measurements were performed in triplicates.

BRD4 BD2 [2] = molecular target: T2, BRD4 BD2 (Homo sapiens, UniProt O60885); test: DSF thermal shift assay; assay type: binding; parameters: purchased in-house (SGC Frankfurt recombinant bromodomain DSF panel); conditions: for Mean Tm BRD4 (2), bromodomain panel: selectivity panel, technical triplicates
Description: as §2

PaTu8988T cells = test: CellTiter-Glo cell viability assay; assay type: cell-based; conditions: Homo sapiens, PaTu 8988t, 72 h; treatment for 3 days
Description: PDAC cell line PaTu8988T was obtained from ATCC and cultured in Dulbecco’s modified Eagle’s medium (DMEM) containing 10% FBS, 25 mM glucose, […], 1 mM sodium pyruvate, and 1% penicillin–streptomycin. Nut midline carcinoma cell line HCC2429 was kindly provided by Lead Discovery Center GmbH (Dortmund, Germany) and was cultured in RPMI1640 medium containing 10% FBS, 2 mM L-glutamine, and 1% penicillin–streptomycin. Cell line PaTu8988T was authenticated using the Multiplex human Cell line Authentication Test (MCA) by Multiplexion GmbH, and cell line HCC2429 was authenticated using short tandem repeat (STR) profiling.
The assays were performed using Promega’s CellTiter-Glo Luminescent Cell Viability Assay kit (Cat. #G7571). First, compounds dissolved in DMSO were printed in 96-well plates (Corning) by using a Tecan D300e digital dispenser. Then, cells were seeded into the compound-printed plates using a Thermo Multidrop reagent dispenser. 72 h later, one volume of diluted CellTiter-Glo reagent (1:4 dilution with PBS) was added to individual wells by using the Thermo Multidrop reagent dispenser again. Plates were shaken for 2 min and incubated for 10 min in the dark. Luminescent signals were read by using a Tecan Spark Multimode Microplate Reader. The values were normalized to the DMSO control wells and presented as a percentage of cell viability. Dose–response curves were drawn with GraphPad Prism 8.

BRD4 BD1 [3] = molecular target: T1, BRD4 BD1; test: NanoBRET target engagement assay (HEK293T); assay type: cell-based; parameters: BRD4 bromodomains and full-length HDACs were obtained as plasmids cloned in-frame with a terminal NanoLuc fusion; host or cells: HEK293T; conditions: intact cells
Description: (§3) The assay was performed as described previously.[17],[59] In brief, BRD4 bromodomains and full-length HDACs were obtained as plasmids cloned in-frame with a terminal NanoLuc fusion (Promega). Plasmids were transfected into HEK293T cells using FuGENE HD (Promega, E2312), and proteins were allowed to express for 20 h. Serially diluted inhibitor and the corresponding NanoBRET Tracer (Promega) at a concentration determined previously as the tracer KD, app were pipetted into white 384-well plates (Greiner #781207) for BRD assays or white 96-well plates (Corning #3600) for HDAC using an Echo acoustic dispenser (Labcyte). The corresponding protein-transfected cells were added and reseeded at a density of 2 × 10^5 cells/mL after trypsinization and resuspended in Opti-MEM without phenol red (Life Technologies). The system was allowed to equilibrate for 2 h at 37 °C/5% CO2 prior to BRET measurements. To measure BRET, NanoBRET NanoGlo substrate + Extracellular NanoLuc Inhibitor (Promega, N2540) was added as per the manufacturer’s protocol, and filtered luminescence was measured on a PHERAstar plate reader (BMG Labtech) equipped with a luminescence filter pair (450 nm BP filter (donor) and 610 nm LP filter (acceptor)). For lysed-mode NanoBRET experiments, digitonin (Promega, #G9441) was added as per the manufacturer’s instructions to a final concentration of […].

BRD4 BD2 [4] = molecular target: T2, BRD4 BD2; test: NanoBRET target engagement assay (HEK293T); assay type: cell-based; parameters: BRD4 bromodomains and full-length HDACs were obtained as plasmids cloned in-frame with a terminal NanoLuc fusion; host or cells: HEK293T; conditions: intact cells
Description: as §3

| SMILES | EC50 (HDAC1; intact cells) [nM] | EC50 (HDAC3) [µM] | EC50 (HDAC2; intact cells) | ΔTm at 10 µM (BRD4 BD1 [1]; 10 μM compound, 2 μM protein, read-out: DSF ΔTm BRD4 BD1) [°C] | ΔTm at 10 µM (BRD4 BD2 [2]; 10 μM compound, 2 μM protein, read-out: DSF ΔTm BRD4 BD2) [°C] | IC50 (PaTu8988T cells) [nM] | EC50 (BRD4 BD1 [3]) [nM] | EC50 (BRD4 BD2 [4]) [nM] | EC50 (HDAC1; lysed-mode) [nM] | EC50 (HDAC2; lysed-mode) [nM] | Mean Tm BRD4 (1), bromodomain panel (BRD4 BD1 [1]; 10 μM compound) [K] | Mean Tm BRD4 (2), bromodomain panel (BRD4 BD2 [2]; 10 μM compound) [K] | DSF ΔTm BRD4 BD1 (BRD4 BD1 [1]; 10 μM compound, 2 μM protein) [K] | ΔTm at 10 µM (BRD4 BD1 [1]; read-out: DSF ΔTm BRD4 BD1, 10 μM compound, 2 μM protein) [°C] | DSF ΔTm BRD4 BD2 (BRD4 BD2 [2]; 10 μM compound, 2 μM protein) [K] | ΔTm at 10 µM (BRD4 BD2 [2]; read-out: DSF ΔTm BRD4 BD2, 10 μM compound, 2 μM protein) [°C] |
| --- | --- | --- | --- | --- | --- | --- | --- | --- | --- | --- | --- | --- | --- | --- | --- | --- |
| Cn1cc(-c2ccc(C(=O)Nc3ccccc3N)nc2)c2cc[nH]c2c1=O [NB500] | 4800 ± 2300 | > 50 | 2500 ± 700 nM | 4.2 ± 0.4 | 4.7 ± 0.4 | 3200 ± 400 | 240 ± 20 | 160 ± 40 |  |  |  |  |  |  |  |  |
| Cn1cc(-c2ccc(C(=O)Nc3cc(-c4ccccc4)ccc3N)nc2)c2cc[nH]c2c1=O [NB512] | 110 ± 30 | 13.6 ± 4.8 | 98 nM and 100 nM |  |  | 3600 ± 400 | 360 ± 130 | 250 ± 120 | 27 | 37 |  |  |  |  |  |  |
| Cn1cc(-c2ccc(C(=O)Nc3cc(-c4ccccc4)ccc3N)cc2)c2cc[nH]c2c1=O [NB503] | 190 ± 30 | 6.5 ± 2.8 | 360 ± 120 nM |  |  | 2800 ± 200 | 420 ± 110 | 520 ± 180 |  |  | 5.5 ± 0.1 | 5.3 ± 0.2 |  |  |  |  |
| Cn1cc(-c2ccc(C(=O)Nc3ccccc3N)cc2)c2cc[nH]c2c1=O [NB462] | 2600 ± 1100 | 32 ± 16 | 1600 ± 700 nM |  |  | 2700 ± 300 | 250 ± 20 | 190 ± 20 |  |  | 3.6 ± 0.1 | 4.6 ± 0.1 | 3.9 ± 0.4 | 4 to 5 | 4.5 ± 0.1 | 4 to 5 |
